Laboratory results taken from US9738634B2, “Heterocyclic amide compound and herbicide” (SYNGENTA PARTICIPATIONS AG, priority 2013, dated 2017).

Key:
Assay type in all cases: in vivo
barnyard grass [1] = test: Test Example 1: weedkilling efficacy, preemergent weed treatment in the submerged state; A: barnyard grass; conditions: treatment dosage 252 g/ha
In short: (§1)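 Pots of alluvial soil flooded 4 cm deep, sown with barnyard grass, bulrush and oval-leafed pondweed and transplanted with 2.5-leaf rice. Emulsified compound applied to the water surface on sowing day at stated g/ha; greenhouse 25–30 °C, effects assessed 3 weeks after treatment.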

bulrush [2] = test: Test Example 1: weedkilling efficacy, preemergent weed treatment in the submerged state; B: bulrush; conditions: treatment dosage 252 g/ha
In short: as §1

oval-leafed pondweed [3] = test: Test Example 1: weedkilling efficacy, preemergent weed treatment in the submerged state; C: oval-leafed pondweed; conditions: treatment dosage 252 g/ha
In short: as §1

transplanted rice = test: Test Example 1: preemergent weed treatment in the submerged state, effect on crop; a: transplanted rice; conditions: treatment dosage 252 g/ha
In short: as §1

barnyard grass [4] = test: Test Example 2: weedkilling efficacy, growth period weed treatment in the submerged state; A: barnyard grass; conditions: treatment dosage 252 g/ha
In short: (§2)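 Barnyard grass, bulrush and oval-leafed pondweed sown in alluvial soil under 4 cm flooding, greenhouse 25 to 30° C. At 1-2 leaf stage, water-diluted emulsion applied to the water surface at stated g/ha dosages; effects scored 3 weeks later.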

bulrush [5] = test: Test Example 2: weedkilling efficacy, growth period weed treatment in the submerged state; B: bulrush; conditions: treatment dosage 252 g/ha
In short: as §2

oval-leafed pondweed [6] = test: Test Example 2: weedkilling efficacy, growth period weed treatment in the submerged state; C: oval-leafed pondweed; conditions: treatment dosage 252 g/ha
In short: as §2

crabgrass [7] = test: Test Example 3: weedkilling efficacy through soil treatment; D: crabgrass; conditions: treatment dosage 315 g/ha
In short: (§3)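 Crop and weed responses were judged three weeks after a uniform surface spray of the water-diluted emulsion at the given g/ha rate. Seeds sat beneath about 1.5 cm of sterilized diluvial soil, and boxes stood in a greenhouse at 25 to 30° C.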

green foxtail [8] = test: Test Example 3: weedkilling efficacy through soil treatment; E: green foxtail; conditions: treatment dosage 315 g/ha
In short: as §3

wild oat [9] = test: Test Example 3: weedkilling efficacy through soil treatment; G: wild oat; conditions: treatment dosage 315 g/ha
In short: as §3

black-grass [10] = test: Test Example 3: weedkilling efficacy through soil treatment; H: black-grass; conditions: treatment dosage 315 g/ha
In short: as §3

Italian ryegrass [11] = test: Test Example 3: weedkilling efficacy through soil treatment; I: Italian ryegrass; conditions: treatment dosage 315 g/ha
In short: as §3

Indian mallow [12] = test: Test Example 3: weedkilling efficacy through soil treatment; K: Indian mallow; conditions: treatment dosage 315 g/ha
In short: as §3

redroot pigweed [13] = test: Test Example 3: weedkilling efficacy through soil treatment; L: redroot pigweed; conditions: treatment dosage 315 g/ha
In short: as §3

fig-leafed goosefoot [14] = test: Test Example 3: weedkilling efficacy through soil treatment; M: fig-leafed goosefoot; conditions: treatment dosage 315 g/ha
In short: as §3

chickweed [15] = test: Test Example 3: weedkilling efficacy through soil treatment; N: chickweed; conditions: treatment dosage 315 g/ha
In short: as §3

corn [16] = test: Test Example 3: soil treatment, effect on crop; c: corn; conditions: treatment dosage 315 g/ha
In short: as §3

soybean [17] = test: Test Example 3: soil treatment, effect on crop; d: soybean; conditions: treatment dosage 315 g/ha
In short: as §3

wheat [18] = test: Test Example 3: soil treatment, effect on crop; e: wheat; conditions: treatment dosage 315 g/ha
In short: as §3

beet = test: Test Example 3: soil treatment, effect on crop; f: beet; conditions: treatment dosage 315 g/ha
In short: as §3

crabgrass [19] = test: Test Example 4: weedkilling efficacy by foliar treatment; D: crabgrass; conditions: treatment dosage 315 g/ha
In short: (§4)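 Seeds are spot-sown into sterilized diluvial soil and covered with about 1.5 cm of soil. After 14 days' greenhouse growth at 25 to 30° C, plants are sprayed on stems and leaves with diluted emulsion at the stated g/ha rate, then scored at 3 weeks.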

green foxtail [20] = test: Test Example 4: weedkilling efficacy by foliar treatment; E: green foxtail; conditions: treatment dosage 315 g/ha
In short: as §4

wild oat [21] = test: Test Example 4: weedkilling efficacy by foliar treatment; G: wild oat; conditions: treatment dosage 315 g/ha
In short: as §4

black-grass [22] = test: Test Example 4: weedkilling efficacy by foliar treatment; H: black-grass; conditions: treatment dosage 315 g/ha
In short: as §4

Italian ryegrass [23] = test: Test Example 4: weedkilling efficacy by foliar treatment; I: Italian ryegrass; conditions: treatment dosage 315 g/ha
In short: as §4

Indian mallow [24] = test: Test Example 4: weedkilling efficacy by foliar treatment; K: Indian mallow; conditions: treatment dosage 315 g/ha
In short: as §4

redroot pigweed [25] = test: Test Example 4: weedkilling efficacy by foliar treatment; L: redroot pigweed; conditions: treatment dosage 315 g/ha
In short: as §4

chickweed [26] = test: Test Example 4: weedkilling efficacy by foliar treatment; N: chickweed; conditions: treatment dosage 315 g/ha
In short: as §4

catchweed = test: Test Example 4: weedkilling efficacy by foliar treatment; O: catchweed; conditions: treatment dosage 315 g/ha
In short: as §4

birds-eye speedwell [27] = test: Test Example 4: weedkilling efficacy by foliar treatment; p: birds-eye speedwell; conditions: treatment dosage 315 g/ha
In short: as §4

directly sown rice = test: Test Example 4: foliar treatment, effect on crop; b: directly sown rice; conditions: treatment dosage 315 g/ha
In short: as §4

corn [28] = test: Test Example 4: foliar treatment, effect on crop; c: corn; conditions: treatment dosage 315 g/ha
In short: as §4

soybean [29] = test: Test Example 4: foliar treatment, effect on crop; d: soybean; conditions: treatment dosage 315 g/ha
In short: as §4

wheat [30] = test: Test Example 4: foliar treatment, effect on crop; e: wheat; conditions: treatment dosage 315 g/ha
In short: as §4

birds-eye speedwell [31] = test: Test Example 3: weedkilling efficacy through soil treatment; p: birds-eye speedwell; conditions: treatment dosage 315 g/ha
In short: as §3

fig-leafed goosefoot [32] = test: Test Example 4: weedkilling efficacy by foliar treatment; M: fig-leafed goosefoot; conditions: treatment dosage 315 g/ha
In short: as §4

SMILES	A (barnyard grass) weedkilling efficacy grade (barnyard grass [1])	B (bulrush) weedkilling efficacy grade (bulrush [2])	C (oval-leafed pondweed) weedkilling efficacy grade (oval-leafed pondweed [3])	a (transplanted rice) effect on crop grade (transplanted rice)	A (barnyard grass) weedkilling efficacy grade (barnyard grass [4])	B (bulrush) weedkilling efficacy grade (bulrush [5])	C (oval-leafed pondweed) weedkilling efficacy grade (oval-leafed pondweed [6])	D (crabgrass) weedkilling efficacy grade (crabgrass [7])	E (green foxtail) weedkilling efficacy grade (green foxtail [8])	G (wild oat) weedkilling efficacy grade (wild oat [9])	H (black-grass) weedkilling efficacy grade (black-grass [10])	I (Italian ryegrass) weedkilling efficacy grade (Italian ryegrass [11])	K (Indian mallow) weedkilling efficacy grade (Indian mallow [12])	L (redroot pigweed) weedkilling efficacy grade (redroot pigweed [13])	M (fig-leafed goosefoot) weedkilling efficacy grade (fig-leafed goosefoot [14])	N (chickweed) weedkilling efficacy grade (chickweed [15])	c (corn) effect on crop grade (corn [16])	d (soybean) effect on crop grade (soybean [17])	e (wheat) effect on crop grade (wheat [18])	f (beet) effect on crop grade (beet)	further results
CC1=C(c2ccccc2)C(=O)N(C(C)(C)C(=O)Nc2cncc(F)c2)CO1 [B-3-01]	5 (weed kill ratio 90% or more, (practically complete withering))	5 (weed kill ratio 90% or more, (practically complete withering))	5 (weed kill ratio 90% or more, (practically complete withering))	0 (weed kill ratio 5% or less (practically no effect))	3 (weed kill ratio 40% or more, less than 70%)	5 (weed kill ratio 90% or more, (practically complete withering))	4 (weed kill ratio 70% or more, less than 90%)	5 (weed kill ratio 90% or more, (practically complete withering))	5 (weed kill ratio 90% or more, (practically complete withering))	5 (weed kill ratio 90% or more, (practically complete withering))	5 (weed kill ratio 90% or more, (practically complete withering))	5 (weed kill ratio 90% or more, (practically complete withering))	2 (weed kill ratio 20% or more, less than 40%)	4 (weed kill ratio 70% or more, less than 90%)	5 (weed kill ratio 90% or more, (practically complete withering))	4 (weed kill ratio 70% or more, less than 90%)	3 (weed kill ratio 40% or more, less than 70%)	0 (weed kill ratio 5% or less (practically no effect))	5 (weed kill ratio 90% or more, (practically complete withering))	4 (weed kill ratio 70% or more, less than 90%)	D (crabgrass) weedkilling efficacy grade (crabgrass [19]): 5 (weed kill ratio 90% or more, (practically complete withering)); E (green foxtail) weedkilling efficacy grade (green foxtail [20]): 5 (weed kill ratio 90% or more, (practically complete withering)); G (wild oat) weedkilling efficacy grade (wild oat [21]): 5 (weed kill ratio 90% or more, (practically complete withering)); H (black-grass) weedkilling efficacy grade (black-grass [22]): 5 (weed kill ratio 90% or more, (practically complete withering)); I (Italian ryegrass) weedkilling efficacy grade (Italian ryegrass [23]): 5 (weed kill ratio 90% or more, (practically complete withering)); K (Indian mallow) weedkilling efficacy grade (Indian mallow [24]): 3 (weed kill ratio 40% or more, less than 70%); L (redroot pigweed) weedkilling efficacy grade (redroot pigweed [25]): 3 (weed kill ratio 40% or more, less than 70%); N (chickweed) weedkilling efficacy grade (chickweed [26]): 2 (weed kill ratio 20% or more, less than 40%); O (catchweed) weedkilling efficacy grade (catchweed): 4 (weed kill ratio 70% or more, less than 90%); P (birds-eye speedwell) weedkilling efficacy grade (birds-eye speedwell [27]): 3 (weed kill ratio 40% or more, less than 70%); b (directly sown rice) effect on crop grade (directly sown rice): 5 (weed kill ratio 90% or more, (practically complete withering)); c (corn) effect on crop grade (corn [28]): 4 (weed kill ratio 70% or more, less than 90%); d (soybean) effect on crop grade (soybean [29]): 4 (weed kill ratio 70% or more, less than 90%); e (wheat) effect on crop grade (wheat [30]): 1 (weed kill ratio 5% or more, less than 20%)
CC1=C(c2ccccc2)C(=O)N(C(C)(C)C(=O)Nc2ccnc(F)c2)CO1 [B-4-02]	5 (weed kill ratio 90% or more, (practically complete withering))	5 (weed kill ratio 90% or more, (practically complete withering))	5 (weed kill ratio 90% or more, (practically complete withering))	3 (weed kill ratio 40% or more, less than 70%)	3 (weed kill ratio 40% or more, less than 70%)	5 (weed kill ratio 90% or more, (practically complete withering))	4 (weed kill ratio 70% or more, less than 90%)	5 (weed kill ratio 90% or more, (practically complete withering))	5 (weed kill ratio 90% or more, (practically complete withering))	5 (weed kill ratio 90% or more, (practically complete withering))	5 (weed kill ratio 90% or more, (practically complete withering))	5 (weed kill ratio 90% or more, (practically complete withering))	4 (weed kill ratio 70% or more, less than 90%)	5 (weed kill ratio 90% or more, (practically complete withering))	5 (weed kill ratio 90% or more, (practically complete withering))	4 (weed kill ratio 70% or more, less than 90%)	4 (weed kill ratio 70% or more, less than 90%)	1 (weed kill ratio 5% or more, less than 20%)	1 (weed kill ratio 5% or more, less than 20%)	3 (weed kill ratio 40% or more, less than 70%)	P (birds-eye speedwell) weedkilling efficacy grade (birds-eye speedwell [31]): 5 (weed kill ratio 90% or more, (practically complete withering)); D (crabgrass) weedkilling efficacy grade (crabgrass [19]): 5 (weed kill ratio 90% or more, (practically complete withering)); E (green foxtail) weedkilling efficacy grade (green foxtail [20]): 5 (weed kill ratio 90% or more, (practically complete withering)); G (wild oat) weedkilling efficacy grade (wild oat [21]): 5 (weed kill ratio 90% or more, (practically complete withering)); H (black-grass) weedkilling efficacy grade (black-grass [22]): 5 (weed kill ratio 90% or more, (practically complete withering)); I (Italian ryegrass) weedkilling efficacy grade (Italian ryegrass [23]): 5 (weed kill ratio 90% or more, (practically complete withering)); K (Indian mallow) weedkilling efficacy grade (Indian mallow [24]): 3 (weed kill ratio 40% or more, less than 70%); L (redroot pigweed) weedkilling efficacy grade (redroot pigweed [25]): 4 (weed kill ratio 70% or more, less than 90%); M (fig-leafed goosefoot) weedkilling efficacy grade (fig-leafed goosefoot [32]): 4 (weed kill ratio 70% or more, less than 90%); N (chickweed) weedkilling efficacy grade (chickweed [26]): 3 (weed kill ratio 40% or more, less than 70%); O (catchweed) weedkilling efficacy grade (catchweed): 5 (weed kill ratio 90% or more, (practically complete withering)); P (birds-eye speedwell) weedkilling efficacy grade (birds-eye speedwell [27]): 5 (weed kill ratio 90% or more, (practically complete withering)); b (directly sown rice) effect on crop grade (directly sown rice): 5 (weed kill ratio 90% or more, (practically complete withering)); c (corn) effect on crop grade (corn [28]): 4 (weed kill ratio 70% or more, less than 90%); d (soybean) effect on crop grade (soybean [29]): 4 (weed kill ratio 70% or more, less than 90%); e (wheat) effect on crop grade (wheat [30]): 0 (weed kill ratio 5% or less (practically no effect))
